These results are taken from article PMC6265452, “An auxin controls bacterial antibiotics production” (Nucleic Acids Research, 2018).

Read-outs that look alike come from different tables or passages of the source.

Assay [1] concerns the target T1, AdmX (Serratia plymuthica, UniProt P0DV33). In words: ITC (also DSF shift of […]°C, in vitro transcription repression). The assay is classed as binding.
Assay [2] deals with T1, AdmX. The description is as above. The assay is classed as binding. This is another data set of the same source.

T1 sequence (P0DV33 whole entry): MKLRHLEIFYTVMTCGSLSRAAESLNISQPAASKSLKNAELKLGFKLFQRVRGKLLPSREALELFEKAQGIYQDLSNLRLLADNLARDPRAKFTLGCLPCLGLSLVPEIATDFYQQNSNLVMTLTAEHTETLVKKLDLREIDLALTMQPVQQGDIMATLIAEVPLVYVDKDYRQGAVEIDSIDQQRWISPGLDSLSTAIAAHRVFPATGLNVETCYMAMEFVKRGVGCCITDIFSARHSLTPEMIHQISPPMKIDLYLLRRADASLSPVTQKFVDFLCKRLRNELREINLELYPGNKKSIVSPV

As usually defined, the Kd is the concentration at which binding is half-saturated. On to `O=C(O)C(=O)Cc1c[nH]c2ccccc12` [IPA, indole-3-pyruvic acid], for which the Kd at AdmX [1] amounted to 1.1 µM. Turning to `O=C(O)Cc1c[nH]c2ccccc12` [IAA, indole-3-acetic acid], on AdmX [2], the Kd amounted to 60.9 µM.
